Results: PMC7408493, “Implication of Opioid Receptors in the Antihypertensive Effect of a Novel Chicken Foot-Derived Peptide” (Biomolecules, 2020)
Ends that are not written are not given here.

Columns and labels:
[1] = Peptide presence in plasma after oral administration; assay type: in vivo; conditions: Wistar rats, 10 mg/kg bw oral, plasma at 0, 30 and 60 min, pooled n = 6, SPE extraction, UHPLC-MS/MS (limit of detection 0.05 ppb) and UHPLC-HRMS
Procedure: Male Wistar rats (17–20 weeks-old, weighing between 230 and 250 g) were obtained from Charles River Laboratories (Barcelona, Spain). Animals were maintained in pairs, at 22 °C with light/dark cycles of 12 h and were fed standard chow diet (AO4, Panlab, Barcelona, Spain) ad libitum during all the experiment. Animals were randomly divided and administered tap water (control group, n = 6) or 10 mg/kg body weight (bw) peptide ([…] group, n = 6) by gastric intubation after starvation of 12 h. The total volume of water or […] orally administered to the rats was 1 mL. […]
Solid-phase extraction (SPE): Plasma samples (150 µL) were mixed with 25 µL of IFV*[…] […] Eluted samples were dried in a speed-vac concentrator (Thermo Fisher, Waltham, Massachusetts), USA), reconstituted in 100 µL of water (0.1 % FA and 0.1 % BSA), and analyzed by UHPLC-MS/MS. […]
The obtained purified solutions from plasma and peptide digests G60 and D60 and from AP and BL chambers in Caco-2 experiment were analyzed using a UHPLC 1290 Infinity II Series coupled to a QqQ 6490 Series (Agilent Technologies, Santa Clara, CA, USA) for tandem mass experiments or a qTOF 6550 Series (Agilent Technologies) for high-resolution mass spectrometry experiments. […]

[2] = test system: trypsin, α-chymotrypsin, porcine pancreatic lipase and colipase; experiment: In vitro simulated duodenal digestion (D60); assay type: in vitro ADME; conditions: 60 min simulated duodenal digestion, pH 7, 37 °C
Procedure: For the in vitro simulated peptide GI digestion, a two-stage hydrolysis process was carried out according to Martos et al.. […] was dissolved in simulated gastric fluid (35 mM NaCl at pH 2 for 15 min) and posteriorly subjected to digestion by porcine pepsin (E.C. 3.4.23.1, 3440 units/mg) at an enzyme/substrate ratio of 1: 20 w/w at 37 °C for 60 min. Gastric digestion with pepsin was stopped by adding 1 M NaHCO3 and pH was adjusted to 7.0 with NaOH 1 M (final protein concentration of 5 mg/mL). Aliquots of this gastric digest were collected (G60) and stored at −20 °C until analysis. Duodenal digestions were performed by using, as the starting material, the obtained gastric digests, with the addition of 1 M CaCl2, 0.25 M bis-Tris pH 6.5, 0.25 M bis-Tris pH 6.5, and a 0.125 M bile salts mixture containing equimolar quantities of sodium taurocholate and glycodeoxycholic acid. […]
Samples obtained from in vitro peptide simulated digestion and Caco-2 monolayers were diluted 10 times with water (0.1% FA) and centrifuged (15,000 rpm, 15 min, 4 °C). Supernatants were directly analyzed by UHPLC-HRMS to avoid the loss of polar peptide fragments. […]

AVFQHNCQE
Presence of peptide or fragments in plasma [1]: neither the peptide nor their potential fragments were identified in the plasma samples | Fate after duodenal digestion [2]: mainly hydrolyzed into free amino acid residues
